Results reported in patent publication US20250082595A1, “METHODS AND COMPOSITIONS FOR TREATING PARKINSON’S DISEASE” (priority 2022, published 2025).
Several values for one entry are separate records, joined by “and”; a condition that tells them apart may be missing. Identical values can stand only once.

Experiments:
[1] = Plasma exposure (AUC) of LD and CD after SC infusion, oral IR tablet, and SC + oral coadministration of LD/CD; format: in vivo
Description: A test was run in order to assess the plasma exposure of levodopa (LD) following the coadministration of LD and carbidopa (CD) in both subcutaneous (SC) and oral administrations. Accordingly, results obtained from a combined SC+oral administration were compared to results obtained from SC administration alone and from oral administration alone. An additive plasma exposure and PK profile was expected, i.e., it was expected that the SC+oral coadministration would provide results equal to the additive results of the SC and oral administrations, when each was administered separately.
16 healthy subjects (18-50 years) were treated in a crossover manner, i.e., sequentially, with a washout period of 6 days between the following two treatments: • Treatment A: A total dose of 180/22.5 mg LD/CD (formulation A) was administered by SC infusion over the course of 8 hours, at a steady infusion rate. • Treatment B: An immediate release (IR) tablet of 100/25 mg LD/CD was administered orally at time 0 h.
Following a 32 hour washout period, the same 16 healthy subjects were administered with LC/CD both orally and subcutaneously according to the following treatment: • Treatment C: A dose of 153.6/19.2 LD/CD (formulation A) was administered by SC infusion over the course of 8 hours, at a steady infusion rate, combined with a single co-administration of an oral IR LD/CD 100/25 mg tablet, 4 hours after the initiation of the infusion. Total LD/CD dose: 253.6/44.2 mg.
The normalized AUC0-8 of LD and CD of Treatment C, resulting from the combined SC and oral treatment, as described above, was calculated and compared to the sum of the normalized LD and CD AUCs obtained from Treatment A (AUC0-8 resulting from 8 h SC infusion) and Treatment B (AUC0-4 resulting from one IR oral tablet).

[2] = Protocol: The objective of this study was to determine the pharmacokinetics (PK) of levodopa (LD) in domestic pigs following continuous subcutaneous (SC) infusion of a levodopa prodrug, exemplified using LD-Tyr, administered concomitantly with oral Levodopa.
Table 6 provides the LD-Tyr formulation tested in this study: […]
The study consisted of 3 dosing sessions in which 5 female pigs (Swine/Landrace×large White, ˜40-50 kg each) were treated with the LD-Tyr solution of Table 6 and/or Sinemet JR oral tablets (CD/LD 25/100 mg tablet) in a cross-over design with up to 4-day washout period between dosing sessions, as detailed in the following tables:
As presented in Tables 7 and 8 above, the study included the following three test groups: • G1—received only SC LD-Tyr (600 mg total daily dose); • G2—received only oral LD (300 mg total daily dose); and • G3—received both SC LD-Tyr (600 mg total daily dose) and oral LD (200 mg total daily dose).
Blood samples for the determination of LD-Tyr (in groups 1 and 3), as well as LD and CD plasma levels (in all groups) were collected from the pigs at the following timepoints: • 0 (pre-dose), 30 min, 1 h, 2 h, 3 h, 4 h, 4.5 h, 5 h, 6 h, 7 h, 8 h, 8.5 h, 9 h, 10 h, 11 h, 13 h, 15 h 18 h following treatment initiation. Tablets were administered before blood collection (time 0, 4 and 8 h).
Plasma samples were analyzed for concentration of LD-Tyr (groups 1 and 3), as well as LD and CD (for all groups) using a qualified LC-MS/MS analytical method.
PK parameters (at least Cmax, tmax, t1/2, AUC) for LD-Tyr, LD and CD were calculated by noncompartmental methods using appropriate software (e.g. Phoenix® WinNonlin®). Individual and mean was calculated for quantitative parameters.
The LD exposure obtained from the SC infusion is considered to be the baseline.

[3] = geomean of group, Treatment A SC 8 h, normalized × 0.853
[4] = geomean of group, oral IR tablet 100/25 mg LD/CD

In the case of `C[C@@](Cc1ccc(O)c(O)c1)(NN)C(=O)O` [CD, carbidopa], the “CD: 4. Treatment C AUC (0-8) [Observed], Geomean Group” value ([1]; geomean of group, SC + oral) is reported as 1051, the “CD: 1. Treatment A AUC (0-8) × 0.853, Geomean Group” value [1, 3] is reported as 900 and the “CD: 2. Treatment B AUC (0-4), Geomean Group” value [1, 4] is reported as 309. For the same compound, the “CD: 3. Combined 1 + 2 [Estimated], Geomean Group” value ([1]; human, in vivo) was 1209, the “CD: Observed (C) vs. Additive Ratio, Geomean Group (mean ratio)” value ([1]; human, in vivo) was 0.869 and the “CD: Observed (C) vs. Additive Ratio, Geomean Individual” value ([1]; human, in vivo) was 0.866. The “CD: 4. Treatment C AUC (0-8) [Observed]” value ([1]; individual subject (ID), SC 153.6/19.2 LD/CD over 8 h + oral IR LD/CD 100/25 mg tablet at 4 h) was 1086, the “CD: 1. Treatment A AUC (0-8) × 0.853” value ([1]; individual subject (ID), Treatment A: 180/22.5 mg LD/CD formulation A, SC infusion over 8 h, AUC × 0.853) was 955 and 988 and 925 and the “CD: 2. Treatment B AUC (0-4)” value ([1]; individual subject (ID), oral IR tablet 100/25 mg LD/CD at 0 h) was 318.
In the case of `N[C@@H](Cc1ccc(O)c(O)c1)C(=O)O` [LD, L-3,4-dihydroxyphenylalanine], the “Synergism ratio, Mean” value ([2]; animal 115 excluded) is reported as 1.57, the “Synergism ratio, Median” value ([2]; animal 115 excluded) is reported as 1.49 and the “Synergism ratio (actual / predicted LD AUC of oral add-ons)” value ([2]; individual pig) is reported as “above 1”. For the same compound, the “Increase of LD plasma exposure by oral add-ons, on top of LD exposure from SC administration alone, versus predicted (average)” value ([2]; pigs, SC LD-Tyr/CD + oral LD/CD) was “over 50%”, the “LD: 4. Treatment C AUC (0-8) [Observed], Geomean Group” value ([1]; geomean of group, SC 153.6/19.2 LD/CD over 8 h + oral 100/25 mg tablet at 4 h) was 4817 and the “LD: 1. Treatment A AUC (0-8) × 0.853, Geomean Group” value [1, 3] was 2412. For the same compound, the “LD: 2. Treatment B AUC (0-4), Geomean Group” value [1, 4] was 1458, the “LD: 3. Combined 1 + 2 [Estimated], Geomean Group” value ([1]; geomean of group, sum A + B) was 3870 and the “LD: Observed (C) vs. Additive Ratio, Geomean Individual” value ([1]; geomean of individual ratios) was 1.240. The “LD: Observed (C) vs. Additive Ratio, Geomean Group (mean ratio)” value ([1]; group geomean, Treatment C vs. A+B) was 1.245, the “LD: 1. Treatment A AUC (0-8) × 0.853” value ([1]; individual subject (ID), Treatment A: 180/22.5 mg LD/CD formulation A, SC infusion over 8 h, AUC × 0.853 to equal SC dose of Treatment C) was 2236 and 2266 and 2218 and the “LD: 4. Treatment C AUC (0-8) [Observed]” value ([1]; individual subject (ID), Treatment C: 153.6/19.2 LD/CD formulation A SC over 8 h + oral IR LD/CD 100/25 mg tablet at 4 h) was 6325 and 5031 and 5059 and 4610 and 3961. For the same compound, the “LD: 3. Combined 1 + 2 [Estimated]” value ([1]; individual subject (ID), sum of normalized Treatment A AUC and Treatment B AUC) was 3087.
